Data taken from article PMC11420776 (RSC Advances, 2024).

Tests used:
CCRF-CEM (leukemia) = assay: NCI 60-cell one-dose antiproliferative screen; format: cell-based, human; details: one dose 10 μM
RPMI-8226 (leukemia) = assay: NCI 60-cell one-dose antiproliferative screen; format: cell-based, human; details: one dose 10 μM
[1] = tested on: A549/ATCC (NSC lung cancer); assay: NCI 60-cell one-dose antiproliferative screen; format: cell-based, human; details: one dose 10 μM
EKVX (NSC lung cancer) = assay: NCI 60-cell one-dose antiproliferative screen; format: cell-based, human; details: one dose 10 μM
HOP-62 (NSC lung cancer) = assay: NCI 60-cell one-dose antiproliferative screen; format: cell-based, human; details: one dose 10 μM
HOP-92 (NSC lung cancer) = assay: NCI 60-cell one-dose antiproliferative screen; format: cell-based, human; details: one dose 10 μM
[2] = tested on: NCI-H226 (NSC lung cancer); assay: NCI 60-cell one-dose antiproliferative screen; format: cell-based, human; details: one dose 10 μM
[3] = tested on: NCI-H23 (NSC lung cancer); assay: NCI 60-cell one-dose antiproliferative screen; format: cell-based, human; details: one dose 10 μM
[4] = tested on: NCI-H322M (NSC lung cancer); assay: NCI 60-cell one-dose antiproliferative screen; format: cell-based, human; details: one dose 10 μM
[5] = tested on: NCI-H460 (NSC lung cancer); assay: NCI 60-cell one-dose antiproliferative screen; format: cell-based, human; details: one dose 10 μM
[6] = tested on: NCI-H522 (NSC lung cancer); assay: NCI 60-cell one-dose antiproliferative screen; format: cell-based, human; details: one dose 10 μM
COLO-205 (colon cancer) = assay: NCI 60-cell one-dose antiproliferative screen; format: cell-based, human; details: one dose 10 μM
HCC-2998 (colon cancer) = assay: NCI 60-cell one-dose antiproliferative screen; format: cell-based, human; details: one dose 10 μM
HCT-116 (colon cancer) = assay: NCI 60-cell one-dose antiproliferative screen; format: cell-based, human; details: one dose 10 μM
HCT-15 (colon cancer) = assay: NCI 60-cell one-dose antiproliferative screen; format: cell-based, human; details: one dose 10 μM
HT29 (colon cancer) = assay: NCI 60-cell one-dose antiproliferative screen; format: cell-based, human; details: one dose 10 μM
KM12 (colon cancer) = assay: NCI 60-cell one-dose antiproliferative screen; format: cell-based, human; details: one dose 10 μM
SW-620 (colon cancer) = assay: NCI 60-cell one-dose antiproliferative screen; format: cell-based, human; details: one dose 10 μM
SF-268 (CNS cancer) = assay: NCI 60-cell one-dose antiproliferative screen; format: cell-based, human; details: one dose 10 μM
SF-295 (CNS cancer) = assay: NCI 60-cell one-dose antiproliferative screen; format: cell-based, human; details: one dose 10 μM
SF-539 (CNS cancer) = assay: NCI 60-cell one-dose antiproliferative screen; format: cell-based, human; details: one dose 10 μM
SNB-19 (CNS cancer) = assay: NCI 60-cell one-dose antiproliferative screen; format: cell-based, human; details: one dose 10 μM
SNB-75 (CNS cancer) = assay: NCI 60-cell one-dose antiproliferative screen; format: cell-based, human; details: one dose 10 μM
U251 (CNS cancer) = assay: NCI 60-cell one-dose antiproliferative screen; format: cell-based, human; details: one dose 10 μM
LOX IMIV (melanoma) = assay: NCI 60-cell one-dose antiproliferative screen; format: cell-based, human; details: one dose 10 μM
MALME-3M (melanoma) = assay: NCI 60-cell one-dose antiproliferative screen; format: cell-based, human; details: one dose 10 μM
M14 (melanoma) = assay: NCI 60-cell one-dose antiproliferative screen; format: cell-based, human; details: one dose 10 μM
MDA-MB-435 (melanoma) = assay: NCI 60-cell one-dose antiproliferative screen; format: cell-based, human; details: one dose 10 μM
SK-MEL-2 (melanoma) = assay: NCI 60-cell one-dose antiproliferative screen; format: cell-based, human; details: one dose 10 μM
SK-MEL-28 (melanoma) = assay: NCI 60-cell one-dose antiproliferative screen; format: cell-based, human; details: one dose 10 μM
UACC-257 (melanoma) = assay: NCI 60-cell one-dose antiproliferative screen; format: cell-based, human; details: one dose 10 μM
UACC-62 (melanoma) = assay: NCI 60-cell one-dose antiproliferative screen; format: cell-based, human; details: one dose 10 μM
IGROV1 (ovarian cancer) = assay: NCI 60-cell one-dose antiproliferative screen; format: cell-based, human; details: one dose 10 μM
OVCAR-3 (ovarian cancer) = assay: NCI 60-cell one-dose antiproliferative screen; format: cell-based, human; details: one dose 10 μM
OVCAR-4 (ovarian cancer) = assay: NCI 60-cell one-dose antiproliferative screen; format: cell-based, human; details: one dose 10 μM
OVCAR-5 (ovarian cancer) = assay: NCI 60-cell one-dose antiproliferative screen; format: cell-based, human; details: one dose 10 μM
OVCAR-8 (ovarian cancer) = assay: NCI 60-cell one-dose antiproliferative screen; format: cell-based, human; details: one dose 10 μM
[7] = tested on: NCI/ADR-RES (ovarian cancer); assay: NCI 60-cell one-dose antiproliferative screen; format: cell-based, human; details: one dose 10 μM
SK-OV-3 (ovarian cancer) = assay: NCI 60-cell one-dose antiproliferative screen; format: cell-based, human; details: one dose 10 μM
786-0 (renal cancer) = assay: NCI 60-cell one-dose antiproliferative screen; format: cell-based, human; details: one dose 10 μM
A498 (renal cancer) = assay: NCI 60-cell one-dose antiproliferative screen; format: cell-based, human; details: one dose 10 μM
ACHN (renal cancer) = assay: NCI 60-cell one-dose antiproliferative screen; format: cell-based, human; details: one dose 10 μM
CAKI-1 (renal cancer) = assay: NCI 60-cell one-dose antiproliferative screen; format: cell-based, human; details: one dose 10 μM
RXF 393 (renal cancer) = assay: NCI 60-cell one-dose antiproliferative screen; format: cell-based, human; details: one dose 10 μM
SN12C (renal cancer) = assay: NCI 60-cell one-dose antiproliferative screen; format: cell-based, human; details: one dose 10 μM
TK-10 (renal cancer) = assay: NCI 60-cell one-dose antiproliferative screen; format: cell-based, human; details: one dose 10 μM
UO-31 (renal cancer) = assay: NCI 60-cell one-dose antiproliferative screen; format: cell-based, human; details: one dose 10 μM
PC-3 (prostate cancer) = assay: NCI 60-cell one-dose antiproliferative screen; format: cell-based, human; details: one dose 10 μM
DU-145 (prostate cancer) = assay: NCI 60-cell one-dose antiproliferative screen; format: cell-based, human; details: one dose 10 μM
MCF7 (breast cancer) = assay: NCI 60-cell one-dose antiproliferative screen; format: cell-based, human; details: one dose 10 μM
[8] = tested on: MDA-MB-231/ATCC (breast cancer); assay: NCI 60-cell one-dose antiproliferative screen; format: cell-based, human; details: one dose 10 μM
HS 578T (breast cancer) = assay: NCI 60-cell one-dose antiproliferative screen; format: cell-based, human; details: one dose 10 μM
T-47D (breast cancer) = assay: NCI 60-cell one-dose antiproliferative screen; format: cell-based, human; details: one dose 10 μM
[9] = tested on: MDA-MB-468 (breast cancer); assay: NCI 60-cell one-dose antiproliferative screen; format: cell-based, human; details: one dose 10 μM
[10] = tested on: 60 human tumor cell lines; assay: NCI 60-cell one-dose antiproliferative screen, whole panel; format: cell-based; details: Homo sapiens, 60 cell, read-out: Mean inhibition (mean GI%)

COc1ccc(-c2nnc3ccc(NN=Cc4ccccc4)nn23)cc1 [Compound 4e, 6-(2-Benzylidenehydrazinyl)-3-(4-methoxyphenyl)-[1,2,4]triazolo[4,3-b]pyridazine]
17.35%: GI% (HS 578T (breast cancer))
34.41%: GI% [8]
17.10%: GI% (SNB-19 (CNS cancer))
22.16%: GI% (U251 (CNS cancer))
21.90%: GI% [1]
30.10%: GI% [7]
29.87%: GI% (LOX IMIV (melanoma))
29.15%: GI% (HOP-92 (NSC lung cancer))
7.15%: inhibition at 10 µM [10]
62.97%: GI% (SNB-75 (CNS cancer))
34.25%: GI% (OVCAR-8 (ovarian cancer))
— (— GI% is below 15%): GI% (CCRF-CEM (leukemia)) | GI% (RPMI-8226 (leukemia)) | GI% (EKVX (NSC lung cancer)) | GI% (HOP-62 (NSC lung cancer)) | GI% [3] | GI% [4] | GI% [5] | GI% [6] | GI% (COLO-205 (colon cancer)) | GI% (HCC-2998 (colon cancer)) | GI% (HCT-116 (colon cancer)) | GI% (HCT-15 (colon cancer)) | GI% (HT29 (colon cancer)) | GI% (KM12 (colon cancer)) | GI% (SW-620 (colon cancer)) | GI% (SF-268 (CNS cancer)) | GI% (SF-295 (CNS cancer)) | GI% (MALME-3M (melanoma)) | GI% (M14 (melanoma)) | GI% (MDA-MB-435 (melanoma)) | GI% (SK-MEL-2 (melanoma)) | GI% (SK-MEL-28 (melanoma)) | GI% (UACC-257 (melanoma)) | GI% (UACC-62 (melanoma)) | GI% (IGROV1 (ovarian cancer)) | GI% (OVCAR-3 (ovarian cancer)) | GI% (OVCAR-4 (ovarian cancer)) | GI% (OVCAR-5 (ovarian cancer)) | GI% (SK-OV-3 (ovarian cancer)) | GI% (786-0 (renal cancer)) | GI% (A498 (renal cancer)) | GI% (ACHN (renal cancer)) | GI% (CAKI-1 (renal cancer)) | GI% (RXF 393 (renal cancer)) | GI% (SN12C (renal cancer)) | GI% (TK-10 (renal cancer)) | GI% (UO-31 (renal cancer)) | GI% (PC-3 (prostate cancer)) | GI% (DU-145 (prostate cancer)) | GI% (T-47D (breast cancer)) | GI% [9]
17.17%: GI% (SF-539 (CNS cancer))
42.42%: GI% [2]
28.54%: GI% (MCF7 (breast cancer))
